Experimental data from patent US6641848B1, “Saponin or sapogenol compositions for increasing collagen IV synthesis” (Parfums Christian Dior, priority 1998, dated 2003).

How the values were obtained:
collagen IV [1] = experiment: Amount of collagen IV in normal human keratinocyte culture (ELISA), soya seed saponins, 72 h; assay type: cell-based; conditions: 10 ng/ml
Protocol: A soya seed extract commercially available under the reference SOY SELECT LOT 26040/2 from the Italian company Indena is used in this Example.
According to the marketing information, this extract contains saponins of the “soya saponin” category in a proportion of 29 to 30% by dry weight, with a predominance of group B soya sapogenols.
To validate the pertinence of the chosen experimental protocol, a series of these tests was carried out with a positive control, namely transforming growth factor beta (TGF-beta), which is known to increase the amount of collagen IV in a culture of human keratinocytes. Reference may be made to the article by Köning A. and Bruckner-Tuderman L., J. Cell. Biol., May 1992, 117(3), 679-85.
(§1) The cultures of normal human keratinocytes (NHK) are grown from a surgical specimen of healthy skin. In the present study, the tests were carried out on a strain of cells, denoted by HK 44, originating from a facelift performed on a person.
The keratinocytes are cultured in K-SFM growth medium, which is a complete specific keratinocyte culture medium (SFM=serum free medium) complemented with EGF (epidermal growth factor) and pituitary extract, said medium being marketed by Gibco, France. […]
(§2) The activity A of the product is expressed as a percentage and corresponds to the following formula: [formula] […]

collagen IV [2] = experiment: Amount of collagen IV in normal human keratinocyte culture (ELISA), soya saponins with beta-ecdysone, 48 h; assay type: cell-based; conditions: beta-ecdysone alone, same experiment
Protocol: as §1
The keratinocytes are cultured in K-SFM growth medium, which is a complete specific keratinocyte culture medium (SFM=serum free medium) complemented with EGF (epidermal growth factor) and pituitary extract, said medium being marketed by Gibco, France. The cells were subcultured once from the primary culture in one passage, denoted by P1.
The cells are inoculated in 96-well culture plates at a rate of 25,000 NHK per well in K-SFM. After 24 h of incubation, which is necessary for good adhesion of the cells, the inoculation medium is withdrawn and replaced with K-SFM diluted 50-fold in the same base medium, but devoid of EGF and pituitary extract. […]
The controls will receive the same amount of DMSO solvent as for the product tested at a final concentration of 0.1%.
The culture supernatants are recovered for carrying out an ELISA, as explained below.
The protocol for assaying the collagen IV by an ELISA method is adapted from that described by DUMAS M. et al. in Mechanisms of Ageing and Development, 1994, 73, pages 179-187. […]
as §2

Compound	Q (ng collagen IV/100 μg proteins; at 72 h) (collagen IV [1]; NHK strain HK 44)	A (%) (collagen IV [1]; vs DMSO control)	increase in the amount of collagen IV (collagen IV [2])
transforming growth factor beta [TGF-beta]	5.615 ± 0.595 ng collagen IV/100 μg proteins	+50%	–
CC(C)(O)CC[C@@H](O)[C@](C)(O)[C@H]1CC[C@@]2(O)C3=CC(=O)[C@@H]4C[C@@H](O)[C@@H](O)C[C@]4(C)[C@H]3CC[C@]12C [beta-ecdysone]	–	–	No increase
